Experimental data as given in patent US20140113898A1, “BISARYLSULFONE AND DIALKYLARYLSULFONE COMPOUNDS AS CALCIUM CHANNEL BLOCKERS” (Zalicus Pharmaceuticals Ltd., priority 2010, published 2014).
Where two headings read alike, the source gives them in different places.

Legend:
Type in all cases: cell-based
CaV3.1 = molecular target: T1, CaV3.1 (Homo sapiens, UniProt O43497); test: High-throughput CaV3.1 T-type FLIPR fluorescent assay; settings: Fluo-4 FLIPR
T1 construct: expressed in transfected cells; host or cells: unnamed doxycycline-inducible cell line
T1 sequence (O43497 whole entry): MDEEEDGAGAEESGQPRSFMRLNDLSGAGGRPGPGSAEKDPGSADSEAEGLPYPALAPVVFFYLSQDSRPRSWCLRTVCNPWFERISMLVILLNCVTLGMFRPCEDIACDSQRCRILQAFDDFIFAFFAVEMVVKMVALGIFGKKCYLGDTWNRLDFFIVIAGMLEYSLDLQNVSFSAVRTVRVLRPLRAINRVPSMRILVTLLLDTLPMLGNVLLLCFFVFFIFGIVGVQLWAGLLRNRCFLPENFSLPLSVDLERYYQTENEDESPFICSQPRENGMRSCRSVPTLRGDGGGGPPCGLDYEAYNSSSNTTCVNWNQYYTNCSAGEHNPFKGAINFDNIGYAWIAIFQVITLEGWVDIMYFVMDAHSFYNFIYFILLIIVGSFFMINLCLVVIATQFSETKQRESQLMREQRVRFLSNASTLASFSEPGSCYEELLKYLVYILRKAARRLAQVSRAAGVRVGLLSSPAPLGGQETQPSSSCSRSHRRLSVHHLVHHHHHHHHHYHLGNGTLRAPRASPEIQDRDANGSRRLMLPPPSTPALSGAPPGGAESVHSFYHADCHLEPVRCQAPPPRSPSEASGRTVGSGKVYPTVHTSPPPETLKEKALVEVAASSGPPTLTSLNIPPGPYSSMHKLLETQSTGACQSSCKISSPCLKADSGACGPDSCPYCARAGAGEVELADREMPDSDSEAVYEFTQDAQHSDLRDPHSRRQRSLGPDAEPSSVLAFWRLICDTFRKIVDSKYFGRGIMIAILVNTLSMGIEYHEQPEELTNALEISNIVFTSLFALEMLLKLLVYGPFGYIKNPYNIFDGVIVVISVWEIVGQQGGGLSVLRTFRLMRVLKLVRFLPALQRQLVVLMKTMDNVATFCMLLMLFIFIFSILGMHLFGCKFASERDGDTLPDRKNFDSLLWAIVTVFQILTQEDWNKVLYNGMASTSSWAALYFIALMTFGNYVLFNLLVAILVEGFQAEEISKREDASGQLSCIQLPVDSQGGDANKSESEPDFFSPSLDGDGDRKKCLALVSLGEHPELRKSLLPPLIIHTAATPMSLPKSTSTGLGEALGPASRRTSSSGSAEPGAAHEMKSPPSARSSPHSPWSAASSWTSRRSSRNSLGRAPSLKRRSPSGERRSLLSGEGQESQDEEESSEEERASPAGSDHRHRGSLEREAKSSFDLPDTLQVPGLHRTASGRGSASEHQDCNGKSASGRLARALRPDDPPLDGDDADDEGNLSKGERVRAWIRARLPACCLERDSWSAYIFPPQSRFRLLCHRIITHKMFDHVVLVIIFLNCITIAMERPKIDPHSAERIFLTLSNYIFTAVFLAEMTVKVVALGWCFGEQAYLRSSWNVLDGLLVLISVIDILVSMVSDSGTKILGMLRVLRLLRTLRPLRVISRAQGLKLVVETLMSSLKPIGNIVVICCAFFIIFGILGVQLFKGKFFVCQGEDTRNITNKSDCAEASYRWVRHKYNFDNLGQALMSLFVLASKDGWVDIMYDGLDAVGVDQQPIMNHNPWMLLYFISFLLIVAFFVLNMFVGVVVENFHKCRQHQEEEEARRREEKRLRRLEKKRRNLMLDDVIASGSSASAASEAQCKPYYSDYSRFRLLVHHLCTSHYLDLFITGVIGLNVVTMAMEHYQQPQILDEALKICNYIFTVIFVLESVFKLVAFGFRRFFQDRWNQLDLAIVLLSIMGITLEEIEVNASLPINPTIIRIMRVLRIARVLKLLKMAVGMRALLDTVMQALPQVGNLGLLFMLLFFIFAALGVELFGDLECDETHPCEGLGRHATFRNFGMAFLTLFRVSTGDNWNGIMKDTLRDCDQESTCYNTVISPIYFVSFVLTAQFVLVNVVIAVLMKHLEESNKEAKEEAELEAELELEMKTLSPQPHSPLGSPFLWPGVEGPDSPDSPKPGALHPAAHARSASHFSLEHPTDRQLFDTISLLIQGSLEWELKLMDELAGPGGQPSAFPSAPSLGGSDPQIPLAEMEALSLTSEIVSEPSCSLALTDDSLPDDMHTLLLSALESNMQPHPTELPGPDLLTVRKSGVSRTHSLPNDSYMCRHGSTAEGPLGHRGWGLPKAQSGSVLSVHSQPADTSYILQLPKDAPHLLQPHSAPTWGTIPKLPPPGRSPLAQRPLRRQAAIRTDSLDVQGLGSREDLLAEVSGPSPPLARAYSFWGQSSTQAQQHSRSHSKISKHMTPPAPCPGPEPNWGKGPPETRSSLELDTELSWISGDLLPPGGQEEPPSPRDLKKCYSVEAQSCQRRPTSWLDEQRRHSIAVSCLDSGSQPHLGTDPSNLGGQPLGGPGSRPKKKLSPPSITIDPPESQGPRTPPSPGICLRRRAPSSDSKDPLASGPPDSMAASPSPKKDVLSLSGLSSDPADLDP
Summary of the method: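 Doxycycline-induced CaV3.1 cells were loaded with Fluo-4 at 29 °C and pre-incubated with compound for 20 min at 29 °C in low-Ca2+ buffer (0.001 mM CaCl2, pH 7.2). Calcium entry was triggered by buffer containing 6 mM CaCl2, and Fluo-4 fluorescence was recorded on FLIPR for 3 min. IC50 came from logistic fits.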

CaV3.2 = molecular target: T2, CaV3.2 (Homo sapiens, UniProt O95180); test: High-throughput CaV3.2/Kir2.3 T-type FLIPR fluorescent assay; settings: Fluo-4 FLIPR, closed or inactivated state not stated
T2 construct: expressed in transfected cells; host or cells: unnamed doxycycline-inducible cell line
T2 sequence (O95180 whole entry): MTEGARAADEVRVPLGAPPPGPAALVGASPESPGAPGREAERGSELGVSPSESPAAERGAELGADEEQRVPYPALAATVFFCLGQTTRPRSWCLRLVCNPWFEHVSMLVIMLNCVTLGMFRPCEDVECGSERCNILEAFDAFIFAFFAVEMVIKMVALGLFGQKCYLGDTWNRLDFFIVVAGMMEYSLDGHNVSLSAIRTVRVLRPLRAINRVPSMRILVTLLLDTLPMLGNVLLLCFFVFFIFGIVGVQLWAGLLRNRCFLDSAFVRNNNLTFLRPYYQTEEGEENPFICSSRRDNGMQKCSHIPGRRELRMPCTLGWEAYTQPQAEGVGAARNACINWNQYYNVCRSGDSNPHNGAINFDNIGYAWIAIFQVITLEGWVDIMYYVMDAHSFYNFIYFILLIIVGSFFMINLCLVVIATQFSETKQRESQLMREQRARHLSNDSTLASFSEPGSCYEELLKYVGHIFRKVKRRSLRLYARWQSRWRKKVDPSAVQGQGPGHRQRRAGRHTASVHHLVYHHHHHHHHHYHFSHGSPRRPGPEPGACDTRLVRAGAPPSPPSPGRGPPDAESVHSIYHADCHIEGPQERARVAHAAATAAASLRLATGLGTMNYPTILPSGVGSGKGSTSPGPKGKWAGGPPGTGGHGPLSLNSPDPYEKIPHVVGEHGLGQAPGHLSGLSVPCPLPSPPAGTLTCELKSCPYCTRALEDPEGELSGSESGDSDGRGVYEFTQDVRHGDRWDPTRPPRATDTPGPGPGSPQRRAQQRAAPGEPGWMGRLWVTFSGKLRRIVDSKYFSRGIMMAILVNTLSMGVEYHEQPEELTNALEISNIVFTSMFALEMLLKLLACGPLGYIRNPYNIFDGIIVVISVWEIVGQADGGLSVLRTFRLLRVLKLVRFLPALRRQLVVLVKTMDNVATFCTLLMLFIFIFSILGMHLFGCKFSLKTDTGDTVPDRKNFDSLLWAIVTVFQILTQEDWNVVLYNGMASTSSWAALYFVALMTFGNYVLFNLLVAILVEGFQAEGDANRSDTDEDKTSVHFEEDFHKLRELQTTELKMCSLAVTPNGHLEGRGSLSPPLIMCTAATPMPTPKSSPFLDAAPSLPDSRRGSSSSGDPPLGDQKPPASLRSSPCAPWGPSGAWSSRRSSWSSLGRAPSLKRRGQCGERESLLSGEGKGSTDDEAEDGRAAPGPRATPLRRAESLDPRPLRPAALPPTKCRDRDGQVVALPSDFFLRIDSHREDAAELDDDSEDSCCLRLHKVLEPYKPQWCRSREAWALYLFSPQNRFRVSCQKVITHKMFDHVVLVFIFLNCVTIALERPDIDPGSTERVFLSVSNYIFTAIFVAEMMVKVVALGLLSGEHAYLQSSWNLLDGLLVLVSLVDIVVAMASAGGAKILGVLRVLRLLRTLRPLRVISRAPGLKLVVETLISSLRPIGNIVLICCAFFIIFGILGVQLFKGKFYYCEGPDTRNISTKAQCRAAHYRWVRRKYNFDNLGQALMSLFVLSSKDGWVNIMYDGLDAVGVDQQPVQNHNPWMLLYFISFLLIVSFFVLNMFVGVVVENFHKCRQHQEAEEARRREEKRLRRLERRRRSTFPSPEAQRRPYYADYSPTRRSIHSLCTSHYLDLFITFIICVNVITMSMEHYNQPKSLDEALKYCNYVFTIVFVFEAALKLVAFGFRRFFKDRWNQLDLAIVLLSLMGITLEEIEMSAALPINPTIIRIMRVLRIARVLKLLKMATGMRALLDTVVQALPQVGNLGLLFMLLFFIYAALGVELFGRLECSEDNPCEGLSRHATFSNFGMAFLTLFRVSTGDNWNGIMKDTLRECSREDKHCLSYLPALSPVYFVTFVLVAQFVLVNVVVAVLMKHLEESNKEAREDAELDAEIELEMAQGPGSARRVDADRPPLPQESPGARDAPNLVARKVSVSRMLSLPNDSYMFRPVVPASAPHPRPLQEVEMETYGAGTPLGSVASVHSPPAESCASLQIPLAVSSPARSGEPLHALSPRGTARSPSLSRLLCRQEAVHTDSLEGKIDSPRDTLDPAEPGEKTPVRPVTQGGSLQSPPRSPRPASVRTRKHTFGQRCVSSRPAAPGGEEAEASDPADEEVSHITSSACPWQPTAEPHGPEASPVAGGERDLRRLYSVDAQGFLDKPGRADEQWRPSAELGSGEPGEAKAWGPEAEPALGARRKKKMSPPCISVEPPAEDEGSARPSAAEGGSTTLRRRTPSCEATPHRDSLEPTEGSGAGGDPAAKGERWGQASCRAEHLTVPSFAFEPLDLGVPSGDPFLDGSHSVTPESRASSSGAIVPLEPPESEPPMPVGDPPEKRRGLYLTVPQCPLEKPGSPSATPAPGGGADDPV
Summary of the method: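 Doxycycline-induced cells loaded with Fluo-4, preincubated 20 min at 29°C with compound in 2 mM KCl (closed-state) or 7.6 mM KCl (inactivated-state) buffer, pH 7.4. Calcium entry triggered by 12 mM or 14.5 mM KCl respectively; fluorescence read 3 min by FLIPR, IC50 from logistic fit.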

CaV2.2 = molecular target: T3, CaV2.2 (Homo sapiens, UniProt Q00975); test: High-throughput CaV2.2/Kir2.3 FLIPR fluorescent assay; settings: Fluo-4 FLIPR, closed or inactivated state not stated, read-out: FLIPR data CaV2.2
T3 construct: expressed in transfected cells; host or cells: unnamed doxycycline-inducible cell line
Summary of the method: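 Doxycycline-induced cells moved to 29 °C on assay day and were loaded with 4.4 μM Fluo-4. They were held in 2 mM KCl (closed state) or 12.5 mM KCl (inactivated state) buffer, pH 7.4, then depolarized with 130 mM KCl. Fluorescence was read 3 min on FLIPR, and IC50 was obtained from logistic fits.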

IC50 (CaV3.1; Table 4) | IC50 (CaV3.2; Table 4) | IC50 (CaV2.2; Table 4) | IC50 (CaV3.1; Table 5) | IC50 (CaV3.2; Table 5) | IC50 (CaV2.2; Table 5) | Structure (SMILES)
680 nM | 1300 nM | 740 nM |  |  |  | O=C(NCc1ccccc1S(=O)(=O)c1cccc(C(F)(F)F)c1)c1ccc(F)c(Cl)c1 [Compound 52, 3-chloro-4-fluoro-N-(2-((3-(trifluoromethyl)phenyl)sulfonyl)benzyl)benzamide]
 |  |  | 6660 nM | 5210 nM | 790 nM | CC(C)(C(=O)NCCc1c[nH]c2ccc(F)cc12)S(=O)(=O)c1cccc(C(F)(F)F)c1 [Compound 131, N-(2-(5-fluoro-1H-indol-3-yl)ethyl)-2-methyl-2-((3-(trifluoromethyl)phenyl)sulfonyl)propanamide]
1560 nM | 2140 nM | 640 nM |  |  |  | CC(C)S(=O)(=O)c1cc(C(F)(F)F)cnc1C(=O)NCc1ccc(S(=O)(=O)c2cccc(C(F)(F)F)c2)cn1 [Compound 96, 3-(isopropylsulfonyl)-5-(trifluoromethyl)-N-((5-((3-(trifluoromethyl)phenyl)sulfonyl)pyridin-2-yl)methyl)picolinamide]
2290 nM | 590 nM | 630 nM |  |  |  | O=C(NCc1ccc(S(=O)(=O)c2cccc(C(F)(F)F)c2)cc1)c1ccnn1CC(F)(F)F [Compound 12, 1-(2,2,2-trifluoroethyl)-N-(4-((3-(trifluoromethyl)phenyl)sulfonyl)benzyl)-1H-pyrazole-5-carboxamide]
1810 nM | 930 nM | 230 nM |  |  |  | O=C(NCc1cccc(S(=O)(=O)c2cccc(C(F)(F)F)c2)c1)c1ccc(C(F)(F)F)cn1 [Compound 20, 5-(trifluoromethyl)-N-(3-((3-(trifluoromethyl)phenyl)sulfonyl)benzyl)picolinamide]
1330 nM | 510 nM | 390 nM |  |  |  | Cn1nc(C(F)(F)F)cc1C(=O)NCc1ccc(S(=O)(=O)c2cccc(C(F)(F)F)c2)cc1 [Compound 7, 1-methyl-3-(trifluoromethyl)-N-(4-((3-(trifluoromethyl)phenyl)sulfonyl)benzyl)-1H-pyrazole-5-carboxamide]
6980 nM | 2090 nM | 450 nM |  |  |  | O=C(NCc1ccc(S(=O)(=O)c2cccc(C(F)(F)F)c2)cn1)[C@H]1C[C@@H](C2CCCCC2)CN1 [Compound 107, (2R,4S)-4-cyclohexyl-N-((5-((3-(trifluoromethyl)phenyl)sulfonyl)pyridin-2-yl)methyl)pyrrolidine-2-carboxamide]
3360 nM | 2450 nM | 310 nM |  |  |  | O=C(NCc1cccc(S(=O)(=O)c2cccc(C(F)(F)F)c2)c1)c1ccnc(C(F)(F)F)n1 [Compound 27, 2-(trifluoromethyl)-N-(3-((3-(trifluoromethyl)phenyl)sulfonyl)benzyl)pyrimidine-4-carboxamide]
5470 nM | 1590 nM | 1060 nM |  |  |  | O=C(NCc1ccccc1S(=O)(=O)c1cccc(C(F)(F)F)c1)[C@@H]1C[C@@H](C2CCCCC2)CN1 [Compound 75, (2S,4S)-4-cyclohexyl-N-(2-((3-(trifluoromethyl)phenyl)sulfonyl)benzyl)pyrrolidine-2-carboxamide]
1850 nM | 600 nM | 340 nM |  |  |  | O=C(NCc1cccc(S(=O)(=O)c2cccc(C(F)(F)F)c2)c1)c1ccnn1CC(F)(F)F [Compound 29, 1-(2,2,2-trifluoroethyl)-N-(3-((3-(trifluoromethyl)phenyl)sulfonyl)benzyl)-1H-pyrazole-5-carboxamide]
1540 nM | 880 nM | 600 nM |  |  |  | O=C(NCc1ccc(S(=O)(=O)c2cccc(C(F)(F)F)c2)cn1)c1ccc(F)c(Cl)c1 [Compound 104, 3-chloro-4-fluoro-N-((5-((3-(trifluoromethyl)phenyl)sulfonyl)pyridin-2-yl)methyl)benzamide]
1350 nM | 2370 nM | 470 nM |  |  |  | CS(=O)(=O)c1cc(C(F)(F)F)cnc1C(=O)NCc1ccc(S(=O)(=O)c2cccc(C(F)(F)F)c2)cc1 [Compound 5, 3-(methylsulfonyl)-5-(trifluoromethyl)-N-(4-((3-(trifluoromethyl)phenyl)sulfonyl)benzyl)picolinamide]
2890 nM | 3240 nM | 640 nM |  |  |  | CS(=O)(=O)c1cc(C(=O)NCc2ccccc2S(=O)(=O)c2cccc(C(F)(F)F)c2)cc(C(F)(F)F)n1 [Compound 42, 2-(methylsulfonyl)-6-(trifluoromethyl)-N-(2-((3-(trifluoromethyl)phenyl)sulfonyl)benzyl)isonicotinamide]
